# Measured values: patent US5087639A, “Preventing CNS toxicity of acivicin when used with four large neutral amino acids” (The Upjohn Company, priority 1988, dated 1992)
# Where two headings read alike, the source gives them in different places.
# What was measured:
# Acivicin-Treated Cats = test: Incidence of toxic symptoms (mydriasis, vomiting, sedation, ataxia) in acivicin-treated cats with concomitant infusion
# cancer patients [1] = conditions: clinical trials conducted to date; cited from earlier work
# tumor cell = conditions: laboratory data; cited from earlier work
# cancer patients [2] = conditions: cited from earlier work
# [3] = Plasma pharmacokinetics of acivicin in cats with concomitant infusion; conditions: cat, in vivo, ip, 60 mg/kg, mean ± s.d.; for Vd/F: read-out: Varea
# Method: Blood was sampled through the blood sampling cannula at -4.0, 0, +4, +6, +9, +12, +18, +24 and +30 hours relative to the acivicin dose, for determination of acivicin concentration by microbiological assay.
# [4] = acivicin 60 mg/kg i.p. plus infusion of the named solution, label Acivicin = saline infusion, affected/treated cats
structure (smiles),measurement,setting,value
"N[C@H](C(=O)O)[C@@H]1CC(Cl)=NO1 [Acivicin, (αS,5S)-α-amino-3-chloro-2-isoxazoline-5-acetic acid]",incidence of ataxia,Acivicin-Treated Cats; [4],4/4
same,incidence of mydriasis,Acivicin-Treated Cats; [4],4/4
same,incidence of sedation,Acivicin-Treated Cats; [4],4/4
same,incidence of vomiting,Acivicin-Treated Cats; [4],1/4
same,ataxia and sedation (in words),"Acivicin-Treated Cats; acivicin-treated cats, label Acivicin = saline-treated",both ataxic sedated
same,efficacy in clinical trials,cancer patients [1],marginal
same,dependence of cytotoxicity on tumor cell exposure concentration and duration,tumor cell,strong dependence
same,CNS effects in humans,cancer patients [2]; dose-limiting,"reversible, dose-limiting CNS effects such as sedation, ataxia, personality changes and hallucinations"
same,dose-limiting toxicity,cancer patients [2]; previous Phase I and II trials,neurotoxicity which is dose-dependent and reversible
same,CL/F,"[3]; Aminosyn infusion, n=2",1.83 mL/min/kg
same,half-life,"[3]; Aminosyn infusion, n=2",4.3 ± 0.7 h
same,k el,"[3]; Aminosyn infusion, n=2",4.44e-05 s⁻¹
same,Vd/F,"[3]; Aminosyn infusion, n=2",0.684 ± 0.064 L/kg
same,CL/F,"[3]; LNAA infusion, n=3",1.05 mL/min/kg
same,half-life,"[3]; LNAA infusion, n=3",8.3 ± 0.8 h
same,k el,"[3]; LNAA infusion, n=3",2.33e-05 s⁻¹
same,Vd/F,"[3]; LNAA infusion, n=3",0.75 ± 0.081 L/kg
same,CL/F,"[3]; OAA infusion, n=3",1.28 mL/min/kg
same,half-life,"[3]; OAA infusion, n=3",7.4 ± 1.06 h
same,k el,"[3]; OAA infusion, n=3",2.64e-05 s⁻¹
same,Vd/F,"[3]; OAA infusion, n=3",0.814 ± 0.061 L/kg
same,CL/F,"[3]; Saline infusion, n=3",1.28 mL/min/kg
same,half-life,"[3]; Saline infusion, n=3",8.4 ± 2.5 h
same,k el,"[3]; Saline infusion, n=3",2.42e-05 s⁻¹
same,Vd/F,"[3]; Saline infusion, n=3",0.893 ± 0.143 L/kg
same,CL/F,"[3]; second line ""aminosyn"", n=4",0.918 mL/min/kg
same,half-life,"[3]; second line ""aminosyn"", n=4",8.18 ± 1.36 h
same,k el,"[3]; second line ""aminosyn"", n=4",2.58e-05 s⁻¹
same,Vd/F,"[3]; second line ""aminosyn"", n=4",0.625 ± 0.0123 L/kg
same,CL/F,"[3]; second line ""saline"", n=4",1.85 mL/min/kg
same,half-life,"[3]; second line ""saline"", n=4",2.6 ± 0.41 h
same,k el,"[3]; second line ""saline"", n=4",7.64e-05 s⁻¹
same,Vd/F,"[3]; second line ""saline"", n=4",0.408 ± 0.0331 L/kg
